Results: patent EP4509511A1, “SUBSTITUTED SPIRO-ISOXAZOLINYL LACTAMS, SALTS THEREOF AND THEIR USE AS HERBICIDALLY ACTIVE SUBSTANCES” (Bayer Aktiengesellschaft, priority 2023, dated 2025)

What was measured:
AMARE = assay: Herbicidal post-emergence action - Part II; assay type: in vivo, Amaranthus retroflexus
Source text: (§1) Seeds of mono- and dicotyledonous weed plants and crop plants were sown, in plastic or organic planting pots, in sandy loam, covered with soil and grown in a greenhouse under controlled growth conditions. 2 to 3 weeks after sowing, the test plants were sprayed in the single-leaf stage. The compounds according to the invention, formulated in form of wettable powders (WP) or as emulsifiable concentrates (EC), were sprayed onto the green plant parts as aqueous suspension or emulsion, with the addition of 0.5% of an additive, at an application rate of 600 1 of water/ha (converted). The test plants were placed in the greenhouse for ca. 3 weeks under optimum growth conditions, and then the effect of the preparations was assessed visually in comparison with untreated controls (herbicidal effect in percent (%): 100% effect = plants have died off, 0% effect = as control plants). Tables E1 to E10 below show the effects of selected compounds of the general formula (I) according to table 1 on various harmful plants and an application rate corresponding to 320 g/ha or below obtained by the experimental procedure mentioned above. Table E1a: post-emergence activity at 5g/ha against ABUTH in %

SETVI = assay: Herbicidal post-emergence action - Part II; assay type: in vivo, Setaria viridis
Source text: as §1

ECHCG = assay: Herbicidal post-emergence action - Part II; assay type: in vivo, Echinochloa crus-galli; details: 20 g/ha; Table E3a
Source text: as §1

VIOTR = assay: Herbicidal post-emergence action - Part II; assay type: in vivo, Viola tricolor
Source text: as §1

ZEAMX = assay: Post-emergence effects on crop plants; assay type: in vivo, Zea mays; details: crop plant
Source text: as §1, with “F1” for “E1”, “F5” for “E10”, “crop” for “harmful”, “[…]:” for “E1a:”, “ZEAMX” for “ABUTH”

ABUTH = assay: Herbicidal post-emergence action - Part II; assay type: in vivo, Abutilon theophrasti
Source text: as §1

TRZAS = assay: Post-emergence effects on crop plants; assay type: in vivo, Triticum aestivum; details: crop plant
Source text: as §1, with “F1” for “E1”, “F5” for “E10”, “crop” for “harmful”, “[…]:” for “E1a:”, “ZEAMX” for “ABUTH”

PHBPU = assay: Herbicidal post-emergence action - Part II; assay type: in vivo, Pharbitis purpurea
Source text: as §1

VERPE = assay: Herbicidal post-emergence action - Part II; assay type: in vivo, Veronica persica
Source text: as §1

MATIN = assay: Herbicidal post-emergence action - Part II; assay type: in vivo, Matricaria inodora
Source text: as §1

POLCO = assay: Herbicidal post-emergence action - Part II; assay type: in vivo, Polygonum convolvulus; details: 20 g/ha; Table E6
Source text: as §1

Row | SMILES | post-emergence activity against AMARE (AMARE; 5 g/ha, Table E2a) | post-emergence activity against AMARE (AMARE; 20 g/ha, Table E2b) | post-emergence activity against SETVI (SETVI; 20 g/ha, Table E7b) | post-emergence activity against ECHCG (ECHCG) | post-emergence activity against VIOTR (VIOTR; 5 g/ha, Table E9a) | post-emergence activity against VIOTR (VIOTR; 20 g/ha, Table E9b) | post-emergence activity against ZEAMX (ZEAMX; 5 g/ha, Table F1a) | post-emergence activity against ZEAMX (ZEAMX; 20 g/ha, Table F1b) | post-emergence activity against ABUTH (ABUTH; 5 g/ha, Table E1a) | post-emergence activity against ABUTH (ABUTH; 20 g/ha, Table E1b) | post-emergence activity against TRZAS (TRZAS; 5 g/ha, Table F2a) | post-emergence activity against PHBPU (PHBPU; 5 g/ha, Table E5a) | post-emergence activity against PHBPU (PHBPU; 20 g/ha, Table E5b) | post-emergence activity against VERPE (VERPE; 5 g/ha, Table E8a) | post-emergence activity against VERPE (VERPE; 20 g/ha, Table E8b) | post-emergence activity against MATIN (MATIN; 5 g/ha, Table E4a) | post-emergence activity against MATIN (MATIN; 20 g/ha, Table E4b) | post-emergence activity against TRZAS (TRZAS; 20 g/ha, Table F2b) | post-emergence activity against POLCO (POLCO) | post-emergence activity against SETVI (SETVI; 5 g/ha, Table E7a)
1 | Cn1c(C(F)(F)F)cc(=O)n(-c2cc(C3=NOC4(CCCN(Cc5c(F)cccc5F)C4=O)C3)c(Cl)cc2F)c1=O (racemic) [Compound I-6] | 100% | 100% | 100% | 80% | 100% | 100% | 10% | 10% | 100% | 100% | 20% | 100% | 100% | 80% | 80% | – | – | – | – | –
2 | Cn1c(C(F)(F)F)cc(=O)n(-c2cc(C3=NOC4(CCCN(Cc5ccccc5F)C4=O)C3)c(Cl)cc2F)c1=O (racemic) [Compound I-7] | 100% | 100% | 100% | – | 100% | 100% | 20% | – | 100% | 100% | 10% | 100% | 100% | 100% | 100% | 80% | 80% | 20% | 100% | –
3 | Cn1c(C(F)(F)F)cc(=O)n(-c2cc(C3=NOC4(CCN(Cc5ccccc5F)C4=O)C3)c(Cl)cc2F)c1=O (racemic) [Compound I-28] | 100% | 100% | 100% | 100% | 100% | 100% | 20% | 20% | 80% | 100% | 20% | 100% | 100% | 100% | 100% | – | 100% | – | – | 80%
